This is an account of results in ChEMBL document CHEMBL5034019, “Discovery of the Next-Generation Pan-TRK Kinase Inhibitors for the Treatment of Cancer” (J Med Chem, 2021).

Activity calls are given as the source filed them. The rule behind the calls is not given here.

For data set [1], the system named is Proto-oncogene tyrosine-protein kinase receptor Ret (Homo sapiens), P07949 [V804L]. As to the kind of experiment: Inhibition of recombinant human Ret V804L mutant (658 to end residues) assessed as residual activity at 0.5 uM using KKKSPGEYVNIEFG as substrate incubated for 40 mins in presence of [gamma33P]ATP by scintillation counting based radiometry assay relative to control.
Chain of Proto-oncogene tyrosine-protein kinase receptor Ret (Homo sapiens), P07949 [V804L] (P07949 whole entry V804L): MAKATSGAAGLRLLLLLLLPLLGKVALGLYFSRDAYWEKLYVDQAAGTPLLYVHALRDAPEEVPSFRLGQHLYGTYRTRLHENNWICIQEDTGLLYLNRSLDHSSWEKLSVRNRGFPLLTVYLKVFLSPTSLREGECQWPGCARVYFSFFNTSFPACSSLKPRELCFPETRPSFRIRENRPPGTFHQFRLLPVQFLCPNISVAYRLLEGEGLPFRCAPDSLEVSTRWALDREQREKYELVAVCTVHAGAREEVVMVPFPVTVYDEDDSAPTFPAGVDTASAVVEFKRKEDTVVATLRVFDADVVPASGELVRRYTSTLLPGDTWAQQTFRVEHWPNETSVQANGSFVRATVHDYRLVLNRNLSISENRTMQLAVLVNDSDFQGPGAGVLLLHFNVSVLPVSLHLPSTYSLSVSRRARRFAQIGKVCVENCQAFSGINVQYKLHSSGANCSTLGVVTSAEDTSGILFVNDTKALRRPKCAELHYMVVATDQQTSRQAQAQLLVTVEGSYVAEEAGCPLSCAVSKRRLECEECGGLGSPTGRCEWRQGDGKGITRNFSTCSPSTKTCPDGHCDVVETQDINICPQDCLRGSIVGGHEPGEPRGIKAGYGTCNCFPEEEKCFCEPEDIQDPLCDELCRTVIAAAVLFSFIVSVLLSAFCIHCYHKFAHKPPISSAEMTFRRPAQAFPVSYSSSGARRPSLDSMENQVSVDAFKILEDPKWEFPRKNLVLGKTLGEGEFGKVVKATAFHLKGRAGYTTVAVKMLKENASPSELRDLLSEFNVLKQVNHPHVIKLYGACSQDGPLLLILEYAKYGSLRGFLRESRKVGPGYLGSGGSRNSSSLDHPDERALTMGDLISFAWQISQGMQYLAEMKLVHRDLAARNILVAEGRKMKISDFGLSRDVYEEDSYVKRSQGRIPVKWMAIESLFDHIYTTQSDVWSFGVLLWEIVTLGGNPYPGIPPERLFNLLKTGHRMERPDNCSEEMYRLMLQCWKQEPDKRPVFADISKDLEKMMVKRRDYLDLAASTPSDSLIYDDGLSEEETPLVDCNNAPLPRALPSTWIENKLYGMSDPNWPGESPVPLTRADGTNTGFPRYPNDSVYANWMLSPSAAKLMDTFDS

Data set [2] addresses Proto-oncogene tyrosine-protein kinase ROS (Homo sapiens, UniProt P08922). In words: Inhibition of recombinant human Ros1 (1883 to end residues) assessed as residual activity at 0.5 uM using KKKSPGEYVNIEFG as substrate measured after 40 mins in presence of [gamma33P]ATP by scintillation counting method relative to control.
In data set [3] the target is Tyrosine-protein kinase JAK2 (Homo sapiens) (UniProt O60674). As to the kind of experiment: Inhibition of human JAK2 (808 to end residues) assessed as residual activity at 0.5 uM using KTFCGTPEYLAPEVRREPRILSEEEQEMFRDFDYIADWC as substrate after 40 mins by [gamma-33ATP] radiometric assay relative to control.
Data set [4] addresses Tyrosine-protein kinase JAK3 (Homo sapiens) (UniProt P52333). In words: Inhibition of human JAK3 (781 to end residues) assessed as residual activity at 0.5 uM using GGEEEEYFELVKKKK as substrate after 40 mins by [gamma-33ATP] radiometric assay relative to control.
For data set [5], the target named is High affinity nerve growth factor receptor (Homo sapiens, UniProt P04629). In words: Inhibition of human TrkA (440 to end residues) assessed as residual activity at 0.5 uM using KKKSPGEYVNIEFG as substrate measured after 40 mins in presence of [gamma33P]ATP by scintillation counting method relative to control.
Data set [6] has as its system Epidermal growth factor receptor (Homo sapiens), P00533 [L861Q]. As to the kind of experiment: Inhibition of recombinant human EGFR L861Q mutant (696 to end residues) assessed as residual activity at 0.5 uM using poly(Glu, Tyr) 4:1 as substrate at 40 mins in presence of [gamma-33ATP] by scintillation counting based radiometry assay relative to control.
For data set [7], the target named is Fibroblast growth factor receptor 2 (Homo sapiens) (UniProt P21802). In words: Inhibition of recombinant human FGFR2 (456 to 770 residues) assessed as residual activity at 0.5 uM using poly(Glu, Tyr) 4:1 as substrate at 40 mins in presence of [gamma-33ATP] by scintillation counting based radiometry assay relative to control.
Data set [8] can be described thus: Oral bioavailability in female Sprague-Dawley rat at 10 mg/kg measured up to 24 hrs by LC/MS/MS analysis. The following applies: in vivo. The format is ADME, organism-based.
The species named for data set [9] is Homo sapiens. As to the kind of experiment: Inhibition of recombinant […] human B-Raf V599E mutant (416 to end residues) assessed as residual activity at 0.5 uM using myelin basic protein as substrate incubated for 40 mins in presence of [gamma-33ATP] by scintillation counting based radiometry assay relative to control.
Data set [10] in a line: AUC (0 to t) in female Sprague-Dawley rat at 10 mg/kg, po measured up to 24 hrs by LC-MS/MS analysis. The following applies: in vivo. More on the design: route oral, dose 10 mg/kg, time <=24. The format is ADME, organism-based.
Data set [11] deals with Hepatocyte growth factor receptor (Homo sapiens), P08581 [M1268T]. As to the kind of experiment: Inhibition of recombinant human Met M1268T mutant (974 to end residues) assessed as residual activity at 0.5 uM using KKKGQEEEYVFIE as substrate incubated for 40 mins in presence of [gamma-33P]-ATP by scintillation counting method relative to control.
Data set [12] in a line: Clearance in male Sprague-Dawley rat at 2 mg/kg, iv measured up to 24 hrs by LC/MS/MS analysis. Type of data set: ADME, organism-based. The following applies: in vivo.
The test system of data set [13] is Mast/stem cell growth factor receptor Kit (Homo sapiens), P10721 [V654A]. In words: Inhibition of recombinant human C-Kit V654A mutant (544 to end residues) assessed as residual activity at 0.5 uM poly(Glu, Tyr) 4:1 as substrate incubated 40 mins in presence of [gamma-33ATP] by scintillation counting based radiometry assay relative to control.
Data set [14] addresses Serine/threonine-protein kinase B-raf (Homo sapiens) (UniProt P15056). In words: Inhibition of recombinant […] human B-Raf (416 to end residues) assessed as residual activity at 0.5 uM using myelin basic protein substrate incubated for 40 mins in presence of [gamma-33ATP] by scintillation counting based radiometry assay relative to control.
The test system of data set [15] is Mast/stem cell growth factor receptor Kit (Homo sapiens), P10721 [D816V]. As to the kind of experiment: Inhibition of recombinant human C-Kit D816V mutant (544 to end residues) assessed as residual activity at 0.5 uM poly(Glu, Tyr) 4:1 as substrate incubated 40 mins in presence of [gamma-33ATP] by scintillation counting based radiometry assay relative to control.

The nature of data set [16]: Toxicity in […] xenografted with mouse BaF3 cells transfected with LMNA-NTRK1 assessed as weight loss at 20 mg/kg, po administered once daily for 21 days and measured twice weekly. Type of data set: organism-based. The following applies: in vivo, 504 h, time 21 day.
Data set [17] is described as follows: in vitro. The following applies: human, Caco-2.
Description: Efflux ratio of apparent permeability from basolateral to apical over apical to basolateral side in human Caco2 cells incubated for 2 hrs by LC-MS/MS analysis
In data set [18] the test system is Tyrosine-protein kinase Blk (Homo sapiens), P51451 [UNDEFINED MUTATION]. As to the kind of experiment: Inhibition of full-length recombinant human BLK M287V mutant assessed as residual activity at 0.5 uM using poly(Glu, Tyr) 4:1 as substrate measured after 40 mins in presence of [gamma33P]ATP by scintillation counting method relative to control.
Chain of Tyrosine-protein kinase Blk (Homo sapiens), P51451 [UNDEFINED MUTATION] (P51451 whole entry, looked up, stated change not applied): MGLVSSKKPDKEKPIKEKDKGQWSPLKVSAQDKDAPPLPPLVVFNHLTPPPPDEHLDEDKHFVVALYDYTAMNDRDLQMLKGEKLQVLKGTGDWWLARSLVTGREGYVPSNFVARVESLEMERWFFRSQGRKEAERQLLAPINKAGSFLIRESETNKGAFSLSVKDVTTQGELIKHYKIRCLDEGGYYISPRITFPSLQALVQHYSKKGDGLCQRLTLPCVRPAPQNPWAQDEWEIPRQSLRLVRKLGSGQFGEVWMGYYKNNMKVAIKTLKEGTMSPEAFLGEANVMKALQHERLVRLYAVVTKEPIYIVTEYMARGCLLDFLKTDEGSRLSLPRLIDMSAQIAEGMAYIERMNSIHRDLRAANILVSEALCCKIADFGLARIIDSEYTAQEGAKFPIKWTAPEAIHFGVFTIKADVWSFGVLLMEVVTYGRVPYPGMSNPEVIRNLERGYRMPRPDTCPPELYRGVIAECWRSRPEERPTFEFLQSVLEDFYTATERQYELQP
A short description of data set [19]: Toxicity in mouse xenografted with mouse BaF3 cells transfected with ETV6-NTRK3 assessed as weight loss at 100 mg/kg, po administered once daily for 21 days and measured twice weekly. The following applies: in vivo, 504 h.
A short description of data set [20]: Toxicity in mouse xenografted with mouse BaF3 cells transfected with ETV6-NTRK3 assessed as unkempt appearance at 100 mg/kg, po administered once daily for 21 days and measured twice weekly. The following applies: in vivo, 504 h.
The nature of data set [21]: Toxicity in mouse xenografted with mouse BaF3 cells transfected with LMNA-NTRK1-G595R mutant assessed as weight loss at 100 mg/kg, po administered once daily for 21 days and measured twice weekly. The following applies: in vivo, 504 h.
Data set [22] in a line: Toxicity in mouse xenografted with mouse BaF3 cells transfected with ETV6-NTRK3-G623R mutant assessed as weight loss at 100 mg/kg, po administered once daily for 21 days and measured twice weekly. The following applies: in vivo, 504 h.
Data set [23] is described as follows: Tmax in Sprague-Dawley rat at 10 mg/kg, po measured up to 24 hrs by LC-MS analysis. The format is ADME, organism-based. The following applies: in vivo.
For data set [24], the system named is BaF3. In words: Antitumor activity against mouse BaF3 cells transfected with LMNA-NTRK1 xenografted in mouse assessed as tumor growth inhibition at 100 mg/kg, po administered once daily for 21 days and measured twice weekly. The following applies: time 21.0 day.

Chain of Tyrosine-protein kinase JAK3 (Homo sapiens) (P52333 whole entry): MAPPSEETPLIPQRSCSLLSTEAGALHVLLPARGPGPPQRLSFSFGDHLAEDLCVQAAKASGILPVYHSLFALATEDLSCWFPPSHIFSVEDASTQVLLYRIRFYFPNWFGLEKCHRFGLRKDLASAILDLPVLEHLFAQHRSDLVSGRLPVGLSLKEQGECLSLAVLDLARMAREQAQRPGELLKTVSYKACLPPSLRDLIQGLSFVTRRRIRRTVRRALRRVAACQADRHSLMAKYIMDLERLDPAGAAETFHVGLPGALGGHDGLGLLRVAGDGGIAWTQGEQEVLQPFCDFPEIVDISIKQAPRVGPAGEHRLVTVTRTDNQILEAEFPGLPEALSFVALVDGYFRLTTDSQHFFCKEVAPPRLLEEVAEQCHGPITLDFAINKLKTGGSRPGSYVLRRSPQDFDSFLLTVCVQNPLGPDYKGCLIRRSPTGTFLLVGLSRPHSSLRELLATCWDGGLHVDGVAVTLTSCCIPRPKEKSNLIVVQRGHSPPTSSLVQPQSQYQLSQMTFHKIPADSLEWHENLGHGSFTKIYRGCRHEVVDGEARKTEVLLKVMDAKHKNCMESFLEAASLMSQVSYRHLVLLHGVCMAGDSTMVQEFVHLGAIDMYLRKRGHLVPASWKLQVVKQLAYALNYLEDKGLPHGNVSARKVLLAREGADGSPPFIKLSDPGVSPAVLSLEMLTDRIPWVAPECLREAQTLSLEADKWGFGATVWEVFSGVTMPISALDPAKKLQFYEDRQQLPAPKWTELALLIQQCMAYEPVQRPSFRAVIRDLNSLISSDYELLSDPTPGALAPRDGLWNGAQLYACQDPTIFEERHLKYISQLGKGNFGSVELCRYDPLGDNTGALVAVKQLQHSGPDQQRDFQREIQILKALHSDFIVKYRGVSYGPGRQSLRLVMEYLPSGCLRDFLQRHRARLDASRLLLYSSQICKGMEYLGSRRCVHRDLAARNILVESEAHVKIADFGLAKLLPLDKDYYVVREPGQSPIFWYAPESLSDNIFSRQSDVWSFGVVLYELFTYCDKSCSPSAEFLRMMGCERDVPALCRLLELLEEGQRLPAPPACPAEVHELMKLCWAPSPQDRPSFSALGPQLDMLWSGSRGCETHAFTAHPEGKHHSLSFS
Chain of Proto-oncogene tyrosine-protein kinase ROS (P08922 whole entry): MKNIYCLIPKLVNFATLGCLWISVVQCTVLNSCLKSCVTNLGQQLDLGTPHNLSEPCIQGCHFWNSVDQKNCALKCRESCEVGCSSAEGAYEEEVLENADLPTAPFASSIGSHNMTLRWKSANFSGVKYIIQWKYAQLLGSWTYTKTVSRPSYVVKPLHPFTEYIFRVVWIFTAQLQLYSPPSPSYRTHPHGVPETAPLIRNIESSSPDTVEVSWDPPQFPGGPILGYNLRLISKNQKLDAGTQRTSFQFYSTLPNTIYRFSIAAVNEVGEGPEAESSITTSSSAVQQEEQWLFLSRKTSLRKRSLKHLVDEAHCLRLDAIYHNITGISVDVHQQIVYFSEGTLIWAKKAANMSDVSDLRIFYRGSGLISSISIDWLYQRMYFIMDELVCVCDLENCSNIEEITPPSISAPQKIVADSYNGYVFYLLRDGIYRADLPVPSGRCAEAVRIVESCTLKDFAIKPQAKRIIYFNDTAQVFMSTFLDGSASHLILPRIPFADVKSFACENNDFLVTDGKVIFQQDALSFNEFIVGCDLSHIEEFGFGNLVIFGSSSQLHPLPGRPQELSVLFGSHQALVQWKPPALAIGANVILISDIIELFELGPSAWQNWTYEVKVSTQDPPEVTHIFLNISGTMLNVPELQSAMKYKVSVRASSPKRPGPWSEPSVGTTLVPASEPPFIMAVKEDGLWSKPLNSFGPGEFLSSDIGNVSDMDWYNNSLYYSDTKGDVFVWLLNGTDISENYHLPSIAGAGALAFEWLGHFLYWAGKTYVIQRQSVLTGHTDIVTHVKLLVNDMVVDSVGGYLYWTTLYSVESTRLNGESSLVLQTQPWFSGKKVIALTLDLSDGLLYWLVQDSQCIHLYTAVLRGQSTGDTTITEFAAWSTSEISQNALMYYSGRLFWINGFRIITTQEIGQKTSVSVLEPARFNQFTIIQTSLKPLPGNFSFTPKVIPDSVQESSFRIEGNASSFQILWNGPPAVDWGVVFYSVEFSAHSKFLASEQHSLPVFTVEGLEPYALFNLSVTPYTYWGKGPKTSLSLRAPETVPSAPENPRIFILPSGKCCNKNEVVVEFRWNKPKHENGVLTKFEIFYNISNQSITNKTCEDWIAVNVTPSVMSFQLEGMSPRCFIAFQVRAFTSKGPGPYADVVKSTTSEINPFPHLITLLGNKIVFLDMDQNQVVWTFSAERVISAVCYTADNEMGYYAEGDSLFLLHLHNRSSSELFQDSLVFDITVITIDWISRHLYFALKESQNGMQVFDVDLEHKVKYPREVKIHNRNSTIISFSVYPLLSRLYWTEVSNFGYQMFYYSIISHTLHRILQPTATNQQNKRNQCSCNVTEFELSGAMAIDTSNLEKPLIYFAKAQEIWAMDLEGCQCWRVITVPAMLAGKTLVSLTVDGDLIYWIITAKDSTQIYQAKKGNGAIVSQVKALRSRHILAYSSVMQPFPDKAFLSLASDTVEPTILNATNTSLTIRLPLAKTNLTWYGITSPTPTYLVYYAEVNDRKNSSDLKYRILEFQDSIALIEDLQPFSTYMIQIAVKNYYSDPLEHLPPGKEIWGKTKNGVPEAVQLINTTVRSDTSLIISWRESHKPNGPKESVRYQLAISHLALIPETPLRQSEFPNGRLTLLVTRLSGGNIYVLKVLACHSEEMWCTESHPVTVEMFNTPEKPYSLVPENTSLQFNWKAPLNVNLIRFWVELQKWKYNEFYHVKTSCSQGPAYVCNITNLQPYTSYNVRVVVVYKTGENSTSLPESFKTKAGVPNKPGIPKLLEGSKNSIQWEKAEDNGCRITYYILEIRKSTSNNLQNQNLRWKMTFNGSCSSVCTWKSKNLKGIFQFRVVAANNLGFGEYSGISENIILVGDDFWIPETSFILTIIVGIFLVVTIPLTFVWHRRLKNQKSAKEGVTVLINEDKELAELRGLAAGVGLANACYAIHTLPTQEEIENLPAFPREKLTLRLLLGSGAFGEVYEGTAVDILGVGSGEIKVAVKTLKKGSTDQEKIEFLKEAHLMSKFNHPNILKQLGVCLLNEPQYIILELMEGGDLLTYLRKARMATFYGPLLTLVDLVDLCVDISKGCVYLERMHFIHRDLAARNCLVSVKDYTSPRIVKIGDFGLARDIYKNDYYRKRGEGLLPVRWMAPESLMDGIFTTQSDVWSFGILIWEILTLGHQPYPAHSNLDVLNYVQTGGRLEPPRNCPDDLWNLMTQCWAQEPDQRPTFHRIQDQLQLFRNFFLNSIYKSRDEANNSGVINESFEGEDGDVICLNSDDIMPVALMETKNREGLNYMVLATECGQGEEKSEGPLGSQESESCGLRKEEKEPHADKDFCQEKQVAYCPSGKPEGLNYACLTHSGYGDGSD

What is called bioavailability is the share of a dose that reaches the circulation, judged against a reference dose that is usually intravenous. By AUC(0-t) is commonly meant the area under the concentration-time curve up to a stated or last time point. Higher therefore signals high exposure. The term clearance denotes the rate of elimination divided by the concentration. Higher therefore signals efficient removal. The term efflux ratio denotes the permeability from basolateral to apical divided by that in the opposite direction, in the common usage. For `O=C1NC2(CC2)COc2ncc(F)cc2[C@H]2COCCN2c2ccn3ncc1c3n2`, the Activity was determined as 59% in [1]; 16% in data set [2]; 44% in data set [3]; 94% in data set [4]; 2% in [5]; 95% in data set [6]. Moreover, the Activity came to 93% in data set [7]; 87% in data set [9]; 86% in [11]; 105% in data set [13]; 111% in [14]; 101% in data set [15]. Also, the Activity result in [16] was “Toxic”; in [18] it was 46%. In data set [8], this molecule registered a bioavailability of 61.9%. In [10], the AUC(0-t) at 24 h was found to be 31.7 µM·h. The molecule also had a clearance in data set [12] of 19.3 mL/min/kg. The efflux ratio at 2 h in data set [17] worked out at 2.8.

As a reminder, the Tmax is the time at which the peak concentration occurs. As for `C[C@@H]1CCc2ncc(F)cc2[C@H]2CCCN2c2ccn3ncc(c3n2)C(=O)N1` [SELITRECTINIB], the Activity entry in data set [19], in data set [20], in data set [21] and in data set [22] was “Toxic” each time. Also, the Tmax in [23] is 24 min. In data set [24], the result was Active.
